The values that follow come from ChEMBL document CHEMBL1201862, “PubChem BioAssay data set” (2004).

Each structure is given as a SMILES string.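 Cultured in 96-well plates, cells were exposed to test compound for 48 hours across five concentrations. Abbreviation: GI50, concentration required for 50% inhibition of growth.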 The source made the active and inactive calls. No stated cut-off is given here; in the data, active = GI50 up to about 1.1 µM and inactive = higher.

Experiment in all cases: NCI tumour cell line growth inhibition, 48 h
For test [1], the system named is NCI-H226.
The test system of test [2] is SK-MEL-5.
Test [3] concerns HCC 2998.
Test [4] relates to RPMI-8226.
In test [5] the test system is UACC-257.
Test [6] has as its system UACC-62.
The subject of test [7] is SR.
In test [8] the test system is MOLT-4.
Test [9] has as its system SNB-75.
For test [10], the system named is OVCAR-5.
The subject of test [11] is OVCAR-8.
Test [12] has as its system K562.
Test [13] relates to T47D.
For test [14], the system named is HT-29.
Test [15] concerns NCI-H460.
Test [16] concerns HOP-62.
In test [17] the test system is HL-60.
In test [18] the test system is SK-MEL-28.
In test [19] the test system is RXF 393.
Test [20] concerns LOX IMVI.

Take `Nc1cc(S(N)(=O)=O)ccc1SSc1ccc(S(N)(=O)=O)cc1N`: the GI50 in test [1] is > 100 µM (inactive); in test [2], > 52.4 µM (inactive); in test [3], > 100 µM (inactive); in test [4], > 100 µM (inactive); in test [5], > 100 µM (inactive); in [6], > 100 µM (inactive). Further, the GI50 in test [7] was 57 µM (inactive); in test [8], 62.7 µM (inactive); in test [9], > 100 µM (inactive); in test [10], > 100 µM (inactive); in test [11], > 100 µM (inactive); in test [12], > 96.6 µM (inactive). Also, the GI50 in test [13], in [14], in test [15], in test [16], in test [17] and in [18] was > 100 µM (inactive) in each case. Moreover, the GI50 in [19] and in test [20] was > 100 µM (inactive) each time.

Consider `[N-]=[N+]=NC[C@H]1OCO[C@H](CN=[N+]=[N-])[C@@H](OCCOCCCl)[C@@H]1OCCOCCCl`, for which the GI50 in test [1] was > 100 µM (inactive); in test [2], 57 µM (inactive); in test [3] it was > 100 µM (inactive); in test [4] it was > 100 µM (inactive); in [5] it was > 100 µM (inactive); in [6] it was 80 µM (inactive). Also, the GI50 in test [7], in [8], in test [9], in test [11], in [12] and in [13] was > 100 µM (inactive) throughout. For the same compound, the GI50 in [14] was > 100 µM (inactive); in [15] it was > 100 µM (inactive); in test [16], > 100 µM (inactive); in test [17] it was > 100 µM (inactive); in [18] it was > 100 µM (inactive); in [19], 5.66 µM (inactive). Further, the GI50 in [20] was > 100 µM (inactive).

With `c1csc(-c2cscc2-c2cccs2)c1`, the GI50 is 27.1 µM (inactive) in test [1]; 46.8 µM (inactive) in test [2]; 22.9 µM (inactive) in test [3]; 43.6 µM (inactive) in test [4]; 95.1 µM (inactive) in test [5]; 72.3 µM (inactive) in [6]. Besides, the GI50 is 27.7 µM (inactive) in [7]; 34.5 µM (inactive) in test [8]; 69.2 µM (inactive) in test [9]; 24.1 µM (inactive) in test [10]; 57.4 µM (inactive) in [11]; 37.3 µM (inactive) in test [12]. Also, the GI50 is > 100 µM (inactive) in [13]; 91.4 µM (inactive) in test [14]; > 100 µM (inactive) in test [15]; 27.6 µM (inactive) in test [16]; 30.3 µM (inactive) in test [17]; > 100 µM (inactive) in test [18]. In addition, the GI50 in test [19] was 27.6 µM (inactive); in test [20] it was 43.2 µM (inactive).

Take `COc1cccc(CCn2c(N)c(C(=O)O)c3ccc([N+](=O)[O-])cc3c2=O)c1`: the GI50 was 44 µM (inactive) in [1]; 24 µM (inactive) in test [2]; 53.2 µM (inactive) in test [3]; 22.9 µM (inactive) in [4]; 52.4 µM (inactive) in test [6]; 40.1 µM (inactive) in [7]. The GI50 in [8] was 54.1 µM (inactive); in [9], 24.9 µM (inactive); in [10], 52.2 µM (inactive); in test [11], 36.6 µM (inactive); in [12], 67.8 µM (inactive); in [13] it was 29.3 µM (inactive). The GI50 was 38.5 µM (inactive) in test [14]; 32.8 µM (inactive) in test [15]; 37.2 µM (inactive) in test [16]; > 100 µM (inactive) in [17]; > 100 µM (inactive) in test [18]; 28.7 µM (inactive) in test [19]. The GI50 in test [20] was 35.2 µM (inactive).

`NCCSS(=O)(=O)CCN`: the GI50 in test [1], in test [2], in test [3], in test [4], in test [6] and in test [7] was > 100 µM (inactive) throughout. Moreover, the GI50 in test [8], in [9], in test [10], in test [11], in [12] and in test [13] was > 100 µM (inactive) each time. Besides, the GI50 in test [14], in test [15], in test [16], in test [17], in test [18] and in test [19] was > 100 µM (inactive) throughout. Besides, the GI50 in [20] is > 100 µM (inactive).

Consider `C[N+](C)(CCNC(=O)c1cccc2cc3ccccc3nc12)Cc1ccc([N+](=O)[O-])cc1`, for which the GI50 is > 100 µM (inactive) in [1]; 50 µM (inactive) in test [2]; > 100 µM (inactive) in test [3]; > 100 µM (inactive) in test [4]; > 100 µM (inactive) in test [5]; > 100 µM (inactive) in test [6]. For the same compound, the GI50 in test [7], in test [8], in test [9], in [10], in test [11] and in [12] was > 100 µM (inactive) each time. Besides, the GI50 in test [13], in [14], in test [15], in test [16], in [17] and in [18] was > 100 µM (inactive) throughout. For the same compound, the GI50 in test [19] and in test [20] was > 100 µM (inactive) throughout.

With `O=C(CC(O)(C(F)(F)F)C(F)(F)Cl)CC(O)(C(F)(F)F)C(F)(F)Cl` (stereo not given), the GI50 is 2.36 µM (inactive) in test [1]; 1.72 µM (inactive) in [2]; 3.04 µM (inactive) in test [3]; 7.1 µM (inactive) in [4]; 1.32 µM (inactive) in test [5]; 1.65 µM (inactive) in test [6]. Also, the GI50 was > 10 µM (inactive) in test [7]; 6.27 µM (inactive) in [8]; 2.82 µM (inactive) in test [9]; 2.88 µM (inactive) in test [11]; 2.76 µM (inactive) in test [12]; 1.49 µM (inactive) in test [13]. Moreover, the GI50 in [14] was 2.33 µM (inactive); in [15], 1.64 µM (inactive); in test [16] it was 2.09 µM (inactive); in [17], 2.99 µM (inactive); in test [18] it was 4.34 µM (inactive); in test [19] it was 2.23 µM (inactive). For the same compound, in test [20], the GI50 was 2.82 µM (inactive).

Regarding `CCc1c(Cl)nc(Cl)nc1Cl`, the GI50 in test [1] is 0.0692 µM (active); in test [2] it was 0.224 µM (active); in [3] it was 0.214 µM (active); in test [4], 0.049 µM (active); in test [5], 0.448 µM (active); in [6], 0.528 µM (active). Also, the GI50 in test [7] is 0.0188 µM (active); in test [8], 0.0173 µM (active); in [9], 1.17 µM (inactive); in test [10] it was 0.324 µM (active); in [11] it was 0.299 µM (active); in test [12] it was 0.0208 µM (active). The GI50 in [13] is 0.339 µM (active); in test [14], 0.121 µM (active); in [15], 1.93 µM (inactive); in test [16], 2.09 µM (inactive); in test [17], 0.206 µM (active); in [18] it was 1.63 µM (inactive). For the same compound, the GI50 in [19] was 0.296 µM (active); in test [20], 0.0199 µM (active).

For `NC(=O)CSc1c2cc(O)ccc2nc2ccc(O)cc12`, the GI50 in test [1], in test [2], in [3], in [4], in test [5] and in test [6] was > 10 µM (inactive) in each case. For the same compound, the GI50 in test [7], in test [8], in [9], in test [10], in [11] and in [12] was > 10 µM (inactive) each time. For the same compound, the GI50 in [13], in test [14], in test [15], in test [16], in test [17] and in test [18] was > 10 µM (inactive) in each case. Moreover, the GI50 in test [19] and in test [20] was > 10 µM (inactive) throughout.

For the compound `O[C@H]1[C@H](O)[C@H](O)CN2CCC[C@@H](O)[C@H]12`, the GI50 in test [1], in test [2], in test [3], in [4], in [5] and in test [6] was > 100 µM (inactive) in each case. In addition, the GI50 in test [7] is > 100 µM (inactive); in [8], > 100 µM (inactive); in test [9], 81.1 µM (inactive); in test [10], > 100 µM (inactive); in [11] it was > 100 µM (inactive); in test [12] it was > 100 µM (inactive). The GI50 in [13], in [14], in [16], in test [17], in test [18] and in test [19] was > 100 µM (inactive) in each case. Also, in [20], the GI50 was > 100 µM (inactive).
